Structures can show the parent of a compound that is named as a salt.

T1 sequence (P09874 whole entry): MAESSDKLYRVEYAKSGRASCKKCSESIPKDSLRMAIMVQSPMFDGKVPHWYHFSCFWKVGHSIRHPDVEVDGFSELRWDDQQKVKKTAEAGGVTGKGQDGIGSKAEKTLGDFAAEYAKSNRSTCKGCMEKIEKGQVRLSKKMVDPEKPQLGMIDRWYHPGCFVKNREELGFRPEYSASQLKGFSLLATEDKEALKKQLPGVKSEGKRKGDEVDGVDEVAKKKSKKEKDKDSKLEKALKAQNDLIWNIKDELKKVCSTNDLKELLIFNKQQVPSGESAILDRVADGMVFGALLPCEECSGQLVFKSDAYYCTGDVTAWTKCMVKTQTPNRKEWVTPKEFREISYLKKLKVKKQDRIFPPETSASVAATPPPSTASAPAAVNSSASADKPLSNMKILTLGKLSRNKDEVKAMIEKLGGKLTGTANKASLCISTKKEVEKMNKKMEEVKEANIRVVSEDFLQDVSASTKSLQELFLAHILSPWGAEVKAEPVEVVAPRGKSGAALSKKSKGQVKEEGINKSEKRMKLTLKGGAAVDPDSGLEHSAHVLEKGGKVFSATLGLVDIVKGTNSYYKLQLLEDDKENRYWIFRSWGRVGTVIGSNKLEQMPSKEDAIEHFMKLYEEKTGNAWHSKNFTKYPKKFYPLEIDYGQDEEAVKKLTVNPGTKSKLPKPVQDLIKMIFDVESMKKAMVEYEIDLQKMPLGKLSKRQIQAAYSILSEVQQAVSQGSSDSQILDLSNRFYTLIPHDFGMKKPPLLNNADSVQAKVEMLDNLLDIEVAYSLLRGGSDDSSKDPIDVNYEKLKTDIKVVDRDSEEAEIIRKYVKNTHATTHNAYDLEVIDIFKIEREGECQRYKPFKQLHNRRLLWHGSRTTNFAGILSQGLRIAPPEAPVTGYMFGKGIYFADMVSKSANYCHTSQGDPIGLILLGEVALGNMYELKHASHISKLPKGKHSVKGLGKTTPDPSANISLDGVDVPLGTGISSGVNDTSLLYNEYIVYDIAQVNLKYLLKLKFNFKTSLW

One data set has as its target T1, recombinant human PARP (Homo sapiens, UniProt P09874).
T1 construct: purchased Trevigen, Inc. (USA)
The experiment in a line: PARP inhibitory activity ([3H]NAD incorporation, filter assay). The data set is classed as biochemical. As to conditions: recombinant human PARP 2 units/ml, 0.3 μM [3H]NAD, DNA 3 μg/ml, room temperature 1.5 hour, duplicate; read-out: IC50 (inhibitory rate of PARP activity). The method, then:
PARP (recombinant human PARP, 660 units/mg) (Trevigen, Inc. (USA))
A buffer (50 mM Tris-HCl (pH8.0)/25 mM MgCl2 aqueous solution) was used in preparation of each solution.
To a 96-well round bottom plate made of polypropylene were added successively a test compound solution (20 μl/well), 1 μM [^3H]NAD (specific activity: 7 kBq/ml) containing 10 μg/ml of DNA (30 μl/well), and 4 units/ml (6 μg/ml) PARP solution (50 μl/well), and the plate was placed under room temperature for 1.5 hour for the reaction (final concentrations of each reagent in the reaction solution: DNA: 3 μg/ml; [^3H]NAD: 0.3 μM/specific activity of 2.1 kBq/ml; PARP: 2 units/ml (3 μg/ml)). The reaction was terminated by addition of a 24 mM benzamide (9 μl/well, 2 mM after the addition), and the PARP in the reaction solution was recovered by using a cell harvester (HARVESTER 96 (registered trade name), TOMTEC Inc. (USA)) on the glass fiber filter for plate. Said glass fiber filter had been soaked with 80% ethanol just prior to the recovary of PARP, and after the recovary of PARP, each well of the plate was washed four times with 80% ethanol, and the washings were also passed through the glass fiber filter. Said glass fiber filter was dried by heating with a microwave oven for 3 to 4 minutes, and put into a sample bag being sandwiched between 2 solid scintillant sheets, and said sample bag was sealed by heat sealing. The bag was put on a heater at about 50° C. to melt the scintillant with heat in order to penetrate it into the filter. The plate was cooled to room temperature, and the [^3H] count of poly(ADP-ribose) (cpm) bound to PARP was measured with a counter for plate (1450 MicroBeta (registered trade name) TriLux, PerkinElmer, Inc. (USA)) for 10 minutes per plate.
The inhibitory rate of PARP activity was calculated by the following equation. [formula]
The inhibitory rate of each test compound was measured in duplicate, and an IC50 value thereof was calculated therefrom.
A word on the IC50: it is the midpoint of a concentration-inhibition curve. Take `O=c1[nH]c(=O)n2c3c(cccc13)CC2` [Example 1, 5,6-dihydro-1H-pyrrolo[3,2,1-ij]quinazoline-1,3(2H)-dione]: the half-inhibitory concentration (IC50) was found to be 140 nM.

In the case of `O=c1[nH]c(=O)n2c3c(cccc13)CCC2` [Example 2, 6,7-Dihydro-1H,5H-pyrido[3,2,1-ij]quinazoline-1,3(2H)-dione], the half-inhibitory concentration (IC50) turned out to be 52 nM. On to `CN(C)c1ccc(C(=O)NCC2Cc3cccc4c(=O)[nH]c(=O)n(c34)C2)cc1` (centres unmarked) [Example 29, 4-(Dimethylamino)-N-[(1,3-dioxo-2,3,6,7-tetrahydro-1H,5H-pyrido[3,2,1-ij]quinazolin-6-yl)methyl]benzamide], for which the half-inhibitory concentration (IC50) is less than 5 nM.

As for `O=C(NCC1Cc2cccc3c(=O)[nH]c(=O)n(c23)C1)C1CCNCC1` (centres unmarked) [Example 39, N-[(1,3-Dioxo-2,3,6,7-tetrahydro-1H,5H-pyrido[3,2,1-ij]quinazolin-6-yl)methyl]-4-piperidinecarboxamide hydrochloride], the IC50 was 7.4 nM.

Test system in another data set: not given
Assay: not given
Conditions: not given
Usually melting point stands for the temperature, or range, at which the solid turns liquid. Consider `Cl.NCC1CCn2c(=O)[nH]c(=O)c3cccc1c32` (centres unmarked), for which the melting point was 190 °C (dec.). `O=c1[nH]c(=O)n2c3c(cccc13)CC2` [Example 1, 5,6-dihydro-1H-pyrrolo[3,2,1-ij]quinazoline-1,3(2H)-dione] showed a melting point of 314 to 315 °C. Same read-out and setting: with `CN(C)c1ccccc1C(=O)NCC1Cc2cccc3c(=O)[nH]c(=O)n(c23)C1` (centres unmarked) [Example 27, 2-(Dimethylamino)-N-[(1,3-dioxo-2,3,6,7-tetrahydro-1H,5H-pyrido[3,2,1-ij]quinazolin-6-yl)methyl]benzamide] the figure was 220 to 236 °C; with `O=c1[nH]c(=O)n2c3c(cccc13)CCC2CO` (centres unmarked) [Example 3, 5-(hydroxymethyl)-6,7-dihydro-1H,5H-pyrido[3,2,1-ij]-quinazoline-1,3(2H)-dione], 205 to 207 °C; with `Cl.NCC1CCc2cccc3c(=O)[nH]c(=O)n1c23` (centres unmarked), more than 300 °C. In turn, `Cl.NCC1Cc2cccc3c(=O)[nH]c(=O)n1c23` (centres unmarked) yielded a melting point of more than 300 °C.

As to `O=c1[nH]c(=O)n2c3c(cccc13)CC(CBr)C2` (centres unmarked) [Example 9, 6-(Bromomethyl)-6,7-dihydro-1H,5H-pyrido[3,2,1-ij]quinazoline-1,3(2H)-dione], the melting point was 267 to 270 °C (dec.). As for `O=C(NCC1Cc2cccc3c(=O)[nH]c(=O)n(c23)C1)C1CCCCC1` (centres unmarked) [Example 30, N-[(1,3-Dioxo-2,3,6,7-tetrahydro-1H,5H-pyrido[3,2,1-ij]quinazolin-6-yl)methyl]cyclohexanecarboxamide], the melting point was 280 to 281 °C (dec.). Compound `Cl.NC1Cc2cccc3c(=O)[nH]c(=O)n(c23)C1` (centres unmarked) yielded a melting point of more than 300 °C. Take `O=C(Cc1ccccc1)NCC1Cc2cccc3c(=O)[nH]c(=O)n(c23)C1` (centres unmarked) [Example 26, N-[(1,3-Dioxo-2,3,6,7-tetrahydro-1H,5H-pyrido[3,2,1-ij]quinazolin-6-yl)methyl]-2-phenylacetamide]: the melting point was 275 °C (dec.). Regarding `O=C(NCC1Cc2cccc3c(=O)[nH]c(=O)n(c23)C1)c1ccnnc1` (centres unmarked) [Example 32, N-[(1,3-Dioxo-2,3,6,7-tetrahydro-1H,5H-pyrido[3,2,1-ij]quinazolin-6-yl)methyl]-4-pyridazinecarboxamide], the melting point was 279 to 281 °C (dec.). Turning to `O=c1[nH]c(=O)n2c3c(cccc13)C(O)C2` (centres unmarked) [Example 46, 6-hydroxy-5,6-dihydro-1H-pyrrolo[3,2,1-ij]quinazoline-1,3(2H)-dione], the melting point is 260 to 266 °C (dec.). Consider `CN(C)Cc1ccc(C(=O)NCC2Cc3cccc4c(=O)[nH]c(=O)n(c34)C2)cc1` (centres unmarked) [Example 33, 4-[(Dimethylamino)methyl]-N-[(1,3-dioxo-2,3,6,7-tetrahydro-1H,5H-pyrido[3,2,1-ij]quinazolin-6-yl)methyl]benzamide], for which the melting point was 240 to 243 °C (dec.). As to `O=c1[nH]c(=O)n2c3c(cccc13)CC2CO` (centres unmarked) [Example 4, 5-(Hydroxymethyl)-5,6-dihydro-1H-pyrrolo[3,2,1-ij]quinazoline-1,3(2H)-dione], the melting point lay in the range of 238 to 240 °C. Regarding `CN1CCC(C(=O)NCC2Cc3cccc4c(=O)[nH]c(=O)n(c34)C2)CC1` (centres unmarked) [Example 34, N-[(1,3-Dioxo-2,3,6,7-tetrahydro-1H,5H-pyrido[3,2,1-ij]quinazolin-6-yl)methyl]-1-methyl-4-piperidinecarboxamide], the melting point is 246 to 250 °C (dec.). For the compound `O=c1[nH]c(=O)n2c3c(cccc13)C(CO)CC2` (centres unmarked) [Example 6, 7-(Hydroxymethyl)-6,7-dihydro-1H,5H-pyrido[3,2,1-ij]quinazoline-1,3(2H)-dione], the melting point was 226 °C (dec.). For `O=c1[nH]c(=O)n2c3c(cccc13)CCC2` [Example 2, 6,7-Dihydro-1H,5H-pyrido[3,2,1-ij]quinazoline-1,3(2H)-dione], the melting point is 282 to 284 °C.

As to `O=c1[nH]c(=O)n2c3c(cccc13)CC(CO)C2` (centres unmarked) [Example 5, 6-(Hydroxymethyl)-6,7-dihydro-1H,5H-pyrido[3,2,1-ij]quinazoline-1,3(2H)-dione], the melting point lay in the range of 252 to 254 °C.

Consider `Cl.NCCC(=O)NCC1Cc2cccc3c(=O)[nH]c(=O)n1c23` (centres unmarked), for which the melting point was 290 to 296 °C (dec.). The compound `O=c1[nH]c(=O)n2c3c(cccc13)CCCC2` [Example 48, 5,6,7,8-Tetrahydro-1H-azepino[3,2,1-ij]quinazoline-1,3(2H)-dione] showed a melting point of 192 to 196 °C. The compound `CN(C)c1cccc(C(=O)NCC2Cc3cccc4c(=O)[nH]c(=O)n(c34)C2)c1` (centres unmarked) [Example 28, 3-(Dimethylamino)-N-[(1,3-dioxo-2,3,6,7-tetrahydro-1H,5H-pyrido[3,2,1-ij]quinazolin-6-yl)methyl]benzamide] came in with a melting point of 158 to 170 °C. On the same count and under the same terms, for `O=C(NCC1Cc2cccc3c(=O)[nH]c(=O)n(c23)C1)C1CCN(Cc2ccccc2)CC1` (centres unmarked) [Example 35, 1-Benzyl-N-[(1,3-dioxo-2,3,6,7-tetrahydro-1H,5H-pyrido[3,2,1-ij]-quinazolin-6-yl)methyl]-4-piperidinecarboxamide] the value was 240 to 242 °C (dec.). The same measure, in the same setting: for `O=C(NCC1Cc2cccc3c(=O)[nH]c(=O)n(c23)C1)c1ccccn1` (centres unmarked) [Example 24, N-[(1,3-Dioxo-2,3,6,7-tetrahydro-1H,5H-pyrido[3,2,1-ij]quinazolin-6-yl)methyl]-2-pyridinecarboxamide] the value was 247 to 250 °C. In the case of `CN(C)c1ccc(C(=O)NCC2Cc3cccc4c(=O)[nH]c(=O)n(c34)C2)cc1` (centres unmarked) [Example 29, 4-(Dimethylamino)-N-[(1,3-dioxo-2,3,6,7-tetrahydro-1H,5H-pyrido[3,2,1-ij]quinazolin-6-yl)methyl]benzamide], the melting point is 268 to 278 °C (dec.).

For the compound `O=c1[nH]c(=O)n2c3c(cccc13)C(CBr)CC2` (centres unmarked) [Example 10, 7-(Bromomethyl)-6,7-dihydro-1H,5H-pyrido[3,2,1-ij]quinazoline-1,3(2H)-dione], the melting point is 225 °C (dec.). Still for that read-out and setting: for `O=C(NCC1Cc2cccc3c(=O)[nH]c(=O)n(c23)C1)c1cnccn1` (centres unmarked) [Example 31, N-[(1,3-Dioxo-2,3,6,7-tetrahydro-1H,5H-pyrido[3,2,1-ij]quinazolin-6-yl)methyl]-2-pyrazinecarboxamide] the value was 255 to 257 °C (dec.). As for `O=C(NCC1Cc2cccc3c(=O)[nH]c(=O)n(c23)C1)c1ccncc1` (centres unmarked) [Example 23, N-[(1,3-Dioxo-2,3,6,7-tetrahydro-1H,5H-pyrido[3,2,1-ij]quinazolin-6-yl)methyl]isonicotinamide], the melting point lay in the range of 282 to 285 °C. On the same count and under the same terms, with `Cl.NCc1ccc(C(=O)NCC2Cc3cccc4c(=O)[nH]c(=O)n(c34)C2)cc1` (centres unmarked) the figure was more than 300 °C.

The values are drawn from patent publication US20030105118A1, “Tricyclic quinazolinediones” (priority 2002, published 2003).
